How the values were obtained:
p21 [1] = assay: p21 levels by immunoblotting in ACHN and/or 786-O cells; format: cell-based, human; settings: 24 h of culture with compound, immunoblot; also: key: + denotes inhibition of p21 secretion or the absence of p21; − denotes the presence of p21
Method: Cells harvested after growth to confluence in 10% serum-containing media and treatment with compounds of the invention were washed with phosphate buffered saline (PBS) and lysed in lysis buffer composed of 50 mM HEPES, 1% Triton X-100, 10 mM sodium pyrophosphate, 100 mM sodium fluoride and 4 mM EDTA at 4° C. Cell lysates were pelleted. Supernatants were electrophoresed and immunoblotted. Membranes were blocked in 5% nonfat dry milk for 30 min at room temperature and probed with p21 antibody. Membranes were then probed with horseradish peroxidase tagged anti-mouse or anti-rabbit IgG antibodies (diluted 3:20,000 and 3:10,000 in 5% nonfat dry milk, respectively) for 2 h at room temperature. Signal was detected using enhanced chemiluminescence (ECL) solutions.

Raf-1 = target: T1, Raf-1 (Homo sapiens, UniProt P04049); assay: Recombinant Raf kinase inhibition (ADP-Glo Kinase Assay), Raf-1; format: biochemical; settings: 10 nM Raf kinase, 1 μM MEK-1, 10 μM ATP, 22° C., 1 hour
T1 construct: Full length recombinant Raf-I and b-Raf (V600E) kinases; purchased US Biological (Swampscott, Mass.)
Method: (§1) All assays were performed using 10 nM Raf kinase, 1 μM MEK-1, 10 μM ATP, at 22° C. for 1 hour. Inhibitors were dissolved in DMSO and IC50 values were obtained by measuring the change in the ADP production (luminescent signal intensity) at various inhibitor concentrations as compared to the control. Individual data sets were performed in duplicate and each IC50 value was determined from three separate experiments. The data were fit to a saturation curve using KaleidaGraph graphing program (Synergy Software) to determine the IC50 values.

b-Raf (V600E) = target: T2, b-Raf (V600E) (Homo sapiens, UniProt P15056, V600E); assay: Recombinant Raf kinase inhibition (ADP-Glo Kinase Assay), b-Raf (V600E); format: biochemical; settings: 10 nM Raf kinase, 1 μM MEK-1, 10 μM ATP, 22° C., 1 hour
T2 construct: Full length recombinant Raf-I and b-Raf (V600E) kinases; purchased US Biological (Swampscott, Mass.)
Method: as §1

human sEH = target: T3, human sEH (Homo sapiens, UniProt P34913); assay: Inhibitory activity against human sEH; format: biochemical; settings: read-out: % Inhibition (IC50) Human sEH
T3 sequence (P34913 1-555): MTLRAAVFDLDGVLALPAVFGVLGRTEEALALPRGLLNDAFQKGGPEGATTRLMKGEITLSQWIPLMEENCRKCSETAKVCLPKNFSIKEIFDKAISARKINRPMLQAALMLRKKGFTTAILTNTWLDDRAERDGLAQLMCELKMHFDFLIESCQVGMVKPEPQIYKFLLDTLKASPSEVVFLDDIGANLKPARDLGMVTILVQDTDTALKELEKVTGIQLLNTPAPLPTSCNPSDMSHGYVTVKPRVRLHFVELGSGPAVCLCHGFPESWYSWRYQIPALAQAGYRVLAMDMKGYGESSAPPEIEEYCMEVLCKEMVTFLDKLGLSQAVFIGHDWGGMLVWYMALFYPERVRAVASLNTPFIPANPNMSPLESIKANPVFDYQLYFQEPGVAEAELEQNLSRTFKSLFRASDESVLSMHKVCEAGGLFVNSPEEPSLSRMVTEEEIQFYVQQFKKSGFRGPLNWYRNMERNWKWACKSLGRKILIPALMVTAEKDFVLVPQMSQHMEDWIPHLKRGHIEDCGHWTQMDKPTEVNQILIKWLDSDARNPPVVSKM

NCI60 cell lines = assay: Cell viability TCA assay in NCI60 cell lines (FIG. 4); format: cell-based, human; settings: 48 h
Method: FIGS. 4A, 4B & 4C. […] TCA assay was conducted in the NCI60 cell lines treated with Compound 2288 as described in the Materials and Methods. Compound 2288 inhibited various cancer cell growth.
TCA assay was conducted by NCI Developmental Therapeutics Program. Briefly, cells were plated in 96-well plates, and after appropriate treatments, the plates are incubated for an additional 48 h at 37° C., 5% CO2. 95% air, and 100% relative humidity. The assay was terminated by the addition of cold TCA. Cells were fixed by the addition of 50 μl of cold 50% (w/v) TCA (final concentration, 10% TCA) and incubated for 60 minutes at 4° C. The plates were washed water and air dried. Sulforhodamine B (SRB) solution (100 μl) at 0.4% (w/v) in 1% acetic acid was added to each well, and plates were incubated for 10 minutes at room temperature. After staining, the plates were washed with 1% acetic acid and air dried. Bound stain was subsequently solubilized with 10 mM trizma base, and the absorbance was read on an automated plate reader at a wavelength of 515 nm.

p21 [2] = assay: p21 protein stability with CHX, immunoblotting in 786-O cells (FIG. 3B); format: cell-based, human; settings: 10 μM with CHX
Method: (§2) FIG. 3. […] 786-O cells were grown to confluence in 10% serum containing media and: (A) treated with Compound 2288 at 10 μM concentration or vehicle (DMSO) for the indicated time. mRNA was isolated and RT-PCR was performed as described in Materials and Methods. GAP DH is a loading control. (B) exposed to CHX (35 μM), Compound 2288 (10 μM). CHX (10 μg/ml) and Compound 2288 (10 μM), or vehicle (DMSO) for the indicated times and immunoblotting was performed with the antibodies indicated. β-actin is a loading control. The experiments shown are representative of at least 3 separate experiments.
(§3) Immunoblotting was performed as previously described.^19 Briefly, after appropriate treatments, the cells were washed with phosphate buffered saline (PBS) and lysed in lysis buffer. Cell lysates were immunoblotted. Membranes were blocked in 5% nonfat dry milk for one hour at room temperature and probed with appropriate antibodies. Membranes were then probed with horseradish peroxidase tagged anti-mouse or anti-rabbit IgG antibodies. Signal was detected using ECL solutions.

p21 mRNA = assay: Reverse transcriptase-PCR of p21 mRNA in 786-O cells (FIG. 3A); format: cell-based, human; settings: 10 μM, RT-PCR
Method: as §2
Total mRNA was collected and cDNA synthesized using a Qiagen RNeasykit (Valencia, Calif.) following manufacture's protocol. The PCR primers used are 5′-[…]-3′ (p21 sense), 5′-[…]-3′ (p21 antisense), 5′-[…]-3′ (GAPDH sense), and 5′-[…]-3′ (GAPDH antisense). Reverse-transcribed cDNA was subjected to 40 cycles. Thermal cycling conditions are as follows: denaturation for 30 seconds at 94° C. annealing for 30 seconds at 56.5° C. and elongation for 1 minute at 72° C. DNA was analyzed by 2% ethidium bromide agarose gel electrophoresis.

p21 [3] = assay: Immunofluorescence staining of p21 in 786-O cells (FIG. 5); format: cell-based, human; settings: 10 μM, 24 h, confocal microscopy
Method: FIG. 5. […] 786-O cells were grown to confluence on 8-well chamber slides and treated with either Compound 2288 at 10 μM concentration or vehicle (DMSO) for 24 h. Immunofluorescence staining of p21 was visualized by confocal microscopy as described in Materials and Methods. p21 is green and the nuclear dye (DAPI) is blue. The experiment shown is representative of at least 3 separate experiments.
After appropriate treatments in 8 well chamber slides. immunofluorescence was conducted as described previously.^19 Briefly, the cells were fixed in 2% paraformaldehyde and blocked in the blocking buffer. After blocking, the cells were incubated with appropriate antibody, incubated with anti-mouse or anti-rabbit IgG (H+L), F(ab′)2 Fragment (Alexa Fluor® 488 Conjugate), and coverslipped with vectashield with DAPI. The specimens were examined by confocal microscopy.

p21 [4] = assay: Immunoblotting of p21 and other proteins in normal kidney and cancer cells (FIG. 2); format: cell-based, human; settings: HK2, 786-O, Caki-1, ACHN and Hey cells, 24 h, immunoblot
Method: FIG. 2. […] The cells were harvested and immunoblotted with the antibodies indicated. (A) p21 and (B) p-Akt, p-ERK, t-Akt, t-ERK and p53 proteins are shown. β-actin is a loading control for each membrane. The experiment shown is representative of at least 3 separate experiments.
as §3

p21 [5] = settings: Inoue et al. (2011) Cancer Biol. Ther.; cited from earlier work

T2 sequence (P15056 whole entry V600E): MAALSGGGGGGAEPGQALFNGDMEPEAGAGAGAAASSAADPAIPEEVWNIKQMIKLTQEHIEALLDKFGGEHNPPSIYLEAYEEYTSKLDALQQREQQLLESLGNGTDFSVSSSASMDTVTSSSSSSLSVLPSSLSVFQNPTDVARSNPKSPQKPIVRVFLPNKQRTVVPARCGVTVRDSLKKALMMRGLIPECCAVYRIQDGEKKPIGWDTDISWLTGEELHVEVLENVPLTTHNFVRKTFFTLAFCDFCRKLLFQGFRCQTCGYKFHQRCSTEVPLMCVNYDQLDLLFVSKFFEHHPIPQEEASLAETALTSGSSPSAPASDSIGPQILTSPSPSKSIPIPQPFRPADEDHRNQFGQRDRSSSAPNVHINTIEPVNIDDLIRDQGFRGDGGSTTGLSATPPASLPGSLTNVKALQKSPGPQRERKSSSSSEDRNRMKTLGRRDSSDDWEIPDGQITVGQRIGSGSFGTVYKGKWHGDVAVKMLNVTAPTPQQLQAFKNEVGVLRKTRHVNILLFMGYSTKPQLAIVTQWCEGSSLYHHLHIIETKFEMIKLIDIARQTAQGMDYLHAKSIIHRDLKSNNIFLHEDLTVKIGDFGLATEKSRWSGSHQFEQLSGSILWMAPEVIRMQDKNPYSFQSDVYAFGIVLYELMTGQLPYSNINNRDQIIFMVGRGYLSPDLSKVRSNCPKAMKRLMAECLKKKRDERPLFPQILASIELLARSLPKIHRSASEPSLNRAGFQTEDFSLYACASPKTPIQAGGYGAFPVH

| SMILES | p21 inhibition (p21 [1]) | other results |
| --- | --- | --- |
| CCC(=O)N1CCC(NC(=O)NC23CC4CC(CC(C4)C2)C3)CC1 [Compound 1163] | − |  |
| O=C(NC12CC3CC(CC(C3)C1)C2)N[C@H]1CC[C@H](Oc2ccc(C(=O)O)cc2)CC1 [Compound 1471] | − |  |
| CS(=O)(=O)N1CCC(NC(=O)Nc2ccc(OC(F)(F)F)cc2)CC1 [Compound 1709] | − |  |
| O=C(Nc1ccc(OC(F)(F)F)cc1)N[C@H]1CC[C@H](Oc2ccc(C(=O)O)cc2)CC1 [Compound 1728] | − |  |
| CCC(=O)N1CCC(NC(=O)Nc2ccc(OC(F)(F)F)cc2)CC1 [Compound 1770] | − |  |
| N#Cc1ccc(O[C@H]2CC[C@H](NC(=O)Nc3ccc(Cl)c(C(F)(F)F)c3)CC2)cc1 [Compound 2182] | + |  |
| O=C(Nc1ccc(Cl)c(C(F)(F)F)c1)N[C@H]1CC[C@H](Oc2ccc(C(=O)O)cc2)CC1 [Compound 2221] | − | IC50 (Raf-1): 4.3 ± 0.4 µM |
| CNC(=O)c1ccc(O[C@H]2CC[C@H](NC(=O)NC34CC5CC(CC(C5)C3)C4)CC2)cc1 [Compound 2225] | − |  |
| CNC(=O)c1ccc(O[C@H]2CC[C@H](NC(=O)Nc3ccc(OC(F)(F)F)cc3)CC2)cc1 [Compound 2227] | − |  |
| CNC(=O)c1ccc(O[C@H]2CC[C@H](NC(=O)Nc3ccc(Cl)c(C(F)(F)F)c3)CC2)cc1 [Compound 2253] | − | IC50 (b-Raf (V600E)): > 10 µM; IC50 (human sEH): 0.0005 µM; IC50 (Raf-1): 0.34 ± 0.04 µM |
| CNC(=O)c1cc(O[C@H]2CC[C@H](NC(=O)Nc3ccc(Cl)c(C(F)(F)F)c3)CC2)ccn1 [Compound 2278] | + |  |
| O=C(Nc1ccc(Cl)c(C(F)(F)F)c1)N[C@H]1CC[C@H](Oc2ccc(C(F)(F)F)cn2)CC1 [Compound 2288] | + | cancer cell growth (NCI60 cell lines): inhibits cancer cell growth; IC50 (human sEH): 0.0005 µM; p21 protein stability (p21 [2]): no effect on p21 protein stability; p21 mRNA expression (p21 mRNA): decreases p21 mRNA expression; cytosolic p21 (p21 [3]): decreases cytosolic p21; levels of other proteins (p-Akt, p-ERK, t-Akt, t-ERK, p53) (p21 [4]): not levels of other proteins; p21 protein level (p21 [4]): consistently decreases p21 protein level |
| CNC(=O)c1ccc(OC2CCC(NC(=O)Nc3ccc(Cl)c(C(F)(F)F)c3)CC2)cn1 (stereo not shown) [Compound 2316] | + | IC50 (b-Raf (V600E)): 0.2 ± 0.15 µM; IC50 (human sEH): 0.0005 µM; IC50 (Raf-1): 0.175 ± 0.02 µM |
| CNC(=O)c1cc(O[C@H]2CC[C@@H](NC(=O)Nc3ccc(Cl)c(C(F)(F)F)c3)CC2)ccn1 [Compound 2319] | + | IC50 (human sEH): 0.0005 µM |
| CCN(CC)C(=O)c1cc(O[C@H]2CC[C@H](NC(=O)Nc3ccc(Cl)c(C(F)(F)F)c3)CC2)ccn1 [Compound 2574] | + |  |
| CNC(=O)c1cc(O[C@H]2CC[C@H](NC(=O)Nc3ccc(OC(F)(F)F)cc3)CC2)ccn1 [Compound 2575] | − |  |
| CNC(=O)c1cc(Oc2ccc(NC(=O)Nc3ccc(OC(F)(F)F)cc3)cc2)ccn1 [Compound 2576] | + | IC50 (human sEH): 0.0005 µM; IC50 (Raf-1): 0.03 µM |
| CCN(CC)C(=O)c1cc(O[C@H]2CC[C@H](NC(=O)Nc3ccc(OC(F)(F)F)cc3)CC2)ccn1 [Compound 2577] | + |  |
| O=C(Nc1ccc(OC(F)(F)F)cc1)N[C@H]1CC[C@H](Oc2ccnc(C(=O)N3CCCC3)c2)CC1 [Compound 2578] | − |  |
| N#Cc1ccc(O[C@H]2CC[C@H](NC(=O)Nc3ccc(C(F)(F)F)cc3)CC2)cc1 [Compound 2579] | + |  |
| N#Cc1ccc(O[C@H]2CC[C@H](NC(=O)Nc3ccc(OC(F)(F)F)cc3)CC2)cc1 [Compound 2581] | + |  |
| CNC(=O)c1cc(Oc2ccc(NC(=O)Nc3ccc(Cl)c(C(F)(F)F)c3)cc2)ccn1 [Sorafenib, reference compound] | + | p21 inhibition (reported) (p21 [5]): potent and stable p21 inhibitor |
